# Reference: ChEMBL document CHEMBL4265945, “Synthesis, biological evaluation and structure-activity relationship of a novel class of PI3Kα H1047R mutant inhibitors” (Eur J Med Chem, 2018)
# Calls of active or inactive are those of the source. The rule behind the calls is not given here.
# Key:
# [1] = target: Phosphatidylinositol 4,5-bisphosphate 3-kinase catalytic subunit alpha isoform (Homo sapiens, UniProt P42336, H1047R); assay: Inhibition of PI3Kalpha H1047R mutant (unknown origin) by HTRF assay
# Phosphatidylinositol 4,5-bisphosphate 3-kinase catalytic subunit alpha isoform (Homo sapiens, UniProt P42336, H1047R), sequence (P42336 whole entry H1047R, canonical isoform): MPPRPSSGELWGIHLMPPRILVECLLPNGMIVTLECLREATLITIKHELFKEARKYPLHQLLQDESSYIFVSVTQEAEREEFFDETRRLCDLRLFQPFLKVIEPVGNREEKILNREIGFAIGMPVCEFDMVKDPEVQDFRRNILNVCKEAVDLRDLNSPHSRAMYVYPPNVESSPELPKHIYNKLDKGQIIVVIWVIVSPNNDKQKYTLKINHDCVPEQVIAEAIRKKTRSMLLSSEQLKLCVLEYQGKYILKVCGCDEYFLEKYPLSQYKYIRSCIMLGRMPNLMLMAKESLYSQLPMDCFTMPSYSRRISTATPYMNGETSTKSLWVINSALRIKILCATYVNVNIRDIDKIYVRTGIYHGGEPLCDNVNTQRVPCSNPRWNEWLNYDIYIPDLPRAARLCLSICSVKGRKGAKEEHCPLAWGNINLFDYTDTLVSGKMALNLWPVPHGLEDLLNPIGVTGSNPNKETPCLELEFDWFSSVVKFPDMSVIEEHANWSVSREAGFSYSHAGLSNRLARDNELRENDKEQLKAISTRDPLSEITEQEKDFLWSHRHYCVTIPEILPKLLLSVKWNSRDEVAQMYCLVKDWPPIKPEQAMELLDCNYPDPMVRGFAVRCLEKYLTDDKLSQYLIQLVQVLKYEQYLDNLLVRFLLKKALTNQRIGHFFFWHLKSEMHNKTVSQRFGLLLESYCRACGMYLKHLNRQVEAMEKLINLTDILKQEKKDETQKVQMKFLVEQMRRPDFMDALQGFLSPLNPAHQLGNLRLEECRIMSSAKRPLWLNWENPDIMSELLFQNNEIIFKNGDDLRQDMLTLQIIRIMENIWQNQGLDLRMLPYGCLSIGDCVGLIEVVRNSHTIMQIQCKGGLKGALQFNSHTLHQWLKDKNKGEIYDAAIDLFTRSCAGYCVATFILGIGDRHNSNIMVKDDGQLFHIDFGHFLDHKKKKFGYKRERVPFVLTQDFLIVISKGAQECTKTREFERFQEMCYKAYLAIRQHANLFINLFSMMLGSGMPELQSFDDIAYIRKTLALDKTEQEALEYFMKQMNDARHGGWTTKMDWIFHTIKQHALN
# HCT-116 [2] = conditions: Homo sapiens, HCT-116, 72 h
# MCF7 = assay: cells; conditions: Homo sapiens, MCF7, 72 h
# Description: Antiproliferative activity against human MCF7 cells after 72 hrs by CCK-8 assay
# [3] = target: Phosphatidylinositol 4,5-bisphosphate 3-kinase catalytic subunit alpha isoform (Homo sapiens, UniProt P42336); assay: Inhibition of wild type PI3Kalpha (unknown origin) after 40 mins by kinase-Glo reagent based luminescence assay
# Phosphatidylinositol 4,5-bisphosphate 3-kinase catalytic subunit alpha isoform (Homo sapiens, UniProt P42336), sequence (P42336 whole entry, canonical isoform): as the sequence (P42336 whole entry H1047R, canonical isoform) above, with R1047H counted along it
# [4] = target: T1, Phosphatidylinositol 4,5-bisphosphate 3-kinase catalytic subunit delta isoform (Homo sapiens, UniProt O00329); assay: Inhibition of PI3Kdelta (unknown origin) after 40 mins by kinase-Glo reagent based luminescence assay
# T1 sequence (O00329 whole entry): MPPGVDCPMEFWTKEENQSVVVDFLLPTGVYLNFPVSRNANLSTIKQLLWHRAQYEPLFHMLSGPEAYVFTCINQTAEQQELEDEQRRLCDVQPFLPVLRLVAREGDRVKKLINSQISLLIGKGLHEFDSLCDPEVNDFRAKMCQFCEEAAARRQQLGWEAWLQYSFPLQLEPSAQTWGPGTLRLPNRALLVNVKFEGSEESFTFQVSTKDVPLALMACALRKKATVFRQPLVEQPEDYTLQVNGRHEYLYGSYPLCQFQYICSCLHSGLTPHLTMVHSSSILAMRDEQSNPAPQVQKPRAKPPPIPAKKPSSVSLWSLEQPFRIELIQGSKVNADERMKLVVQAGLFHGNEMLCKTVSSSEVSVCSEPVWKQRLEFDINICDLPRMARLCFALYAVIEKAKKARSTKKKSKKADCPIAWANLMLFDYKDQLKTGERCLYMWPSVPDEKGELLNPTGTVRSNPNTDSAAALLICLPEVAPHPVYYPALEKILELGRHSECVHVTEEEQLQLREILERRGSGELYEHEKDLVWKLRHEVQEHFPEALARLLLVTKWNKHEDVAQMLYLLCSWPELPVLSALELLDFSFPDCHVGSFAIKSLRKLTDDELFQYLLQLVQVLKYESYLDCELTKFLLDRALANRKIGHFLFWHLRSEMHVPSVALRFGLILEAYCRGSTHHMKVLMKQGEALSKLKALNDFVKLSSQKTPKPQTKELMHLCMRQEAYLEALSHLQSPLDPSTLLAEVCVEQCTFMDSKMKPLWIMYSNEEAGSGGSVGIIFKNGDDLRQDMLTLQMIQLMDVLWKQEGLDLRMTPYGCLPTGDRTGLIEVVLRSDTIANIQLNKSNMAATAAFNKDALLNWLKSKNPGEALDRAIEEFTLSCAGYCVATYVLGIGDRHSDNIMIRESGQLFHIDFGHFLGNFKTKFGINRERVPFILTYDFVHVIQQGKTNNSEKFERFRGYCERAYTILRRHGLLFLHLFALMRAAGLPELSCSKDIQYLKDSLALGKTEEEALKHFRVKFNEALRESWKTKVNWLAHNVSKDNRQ
# [5] = target: Phosphatidylinositol 4,5-bisphosphate 3-kinase catalytic subunit beta isoform (Homo sapiens, UniProt P42338); assay: Inhibition of PI3Kbeta (unknown origin) after 40 mins by kinase-Glo reagent based luminescence assay
# Phosphatidylinositol 4,5-bisphosphate 3-kinase catalytic subunit beta isoform, sequence (P42338 whole entry, canonical isoform): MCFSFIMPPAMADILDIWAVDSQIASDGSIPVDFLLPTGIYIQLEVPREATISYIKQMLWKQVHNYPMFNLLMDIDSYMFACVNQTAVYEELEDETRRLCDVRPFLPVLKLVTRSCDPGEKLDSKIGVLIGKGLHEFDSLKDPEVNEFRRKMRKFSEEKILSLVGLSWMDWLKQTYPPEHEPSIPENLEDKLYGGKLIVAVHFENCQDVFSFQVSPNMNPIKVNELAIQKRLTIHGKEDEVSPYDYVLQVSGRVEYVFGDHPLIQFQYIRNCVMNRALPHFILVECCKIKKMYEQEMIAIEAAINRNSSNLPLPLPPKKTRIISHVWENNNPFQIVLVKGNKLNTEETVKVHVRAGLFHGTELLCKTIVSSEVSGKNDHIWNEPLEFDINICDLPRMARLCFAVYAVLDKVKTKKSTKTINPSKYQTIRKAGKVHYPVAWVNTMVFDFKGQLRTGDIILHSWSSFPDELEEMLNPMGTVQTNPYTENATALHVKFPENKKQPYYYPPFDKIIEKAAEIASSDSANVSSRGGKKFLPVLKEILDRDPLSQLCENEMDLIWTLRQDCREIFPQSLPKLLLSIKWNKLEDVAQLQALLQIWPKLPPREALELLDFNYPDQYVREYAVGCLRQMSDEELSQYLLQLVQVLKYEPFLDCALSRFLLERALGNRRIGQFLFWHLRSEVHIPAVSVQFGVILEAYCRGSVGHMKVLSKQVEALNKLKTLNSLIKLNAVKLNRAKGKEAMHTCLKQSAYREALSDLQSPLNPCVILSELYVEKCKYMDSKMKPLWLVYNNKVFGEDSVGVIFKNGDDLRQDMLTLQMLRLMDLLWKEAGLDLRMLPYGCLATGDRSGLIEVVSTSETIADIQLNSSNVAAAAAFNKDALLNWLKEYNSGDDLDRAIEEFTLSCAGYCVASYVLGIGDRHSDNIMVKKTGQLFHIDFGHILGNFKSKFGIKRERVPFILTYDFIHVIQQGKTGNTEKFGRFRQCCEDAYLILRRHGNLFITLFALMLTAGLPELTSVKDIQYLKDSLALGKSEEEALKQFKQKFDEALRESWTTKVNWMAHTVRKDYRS
# [6] = target: Phosphatidylinositol 4,5-bisphosphate 3-kinase catalytic subunit gamma isoform (Homo sapiens, UniProt P48736); assay: Inhibition of PI3Kgamma (unknown origin) after 40 mins by kinase-Glo reagent based luminescence assay
# Phosphatidylinositol 4,5-bisphosphate 3-kinase catalytic subunit gamma isoform, sequence (P48736 whole entry, canonical isoform): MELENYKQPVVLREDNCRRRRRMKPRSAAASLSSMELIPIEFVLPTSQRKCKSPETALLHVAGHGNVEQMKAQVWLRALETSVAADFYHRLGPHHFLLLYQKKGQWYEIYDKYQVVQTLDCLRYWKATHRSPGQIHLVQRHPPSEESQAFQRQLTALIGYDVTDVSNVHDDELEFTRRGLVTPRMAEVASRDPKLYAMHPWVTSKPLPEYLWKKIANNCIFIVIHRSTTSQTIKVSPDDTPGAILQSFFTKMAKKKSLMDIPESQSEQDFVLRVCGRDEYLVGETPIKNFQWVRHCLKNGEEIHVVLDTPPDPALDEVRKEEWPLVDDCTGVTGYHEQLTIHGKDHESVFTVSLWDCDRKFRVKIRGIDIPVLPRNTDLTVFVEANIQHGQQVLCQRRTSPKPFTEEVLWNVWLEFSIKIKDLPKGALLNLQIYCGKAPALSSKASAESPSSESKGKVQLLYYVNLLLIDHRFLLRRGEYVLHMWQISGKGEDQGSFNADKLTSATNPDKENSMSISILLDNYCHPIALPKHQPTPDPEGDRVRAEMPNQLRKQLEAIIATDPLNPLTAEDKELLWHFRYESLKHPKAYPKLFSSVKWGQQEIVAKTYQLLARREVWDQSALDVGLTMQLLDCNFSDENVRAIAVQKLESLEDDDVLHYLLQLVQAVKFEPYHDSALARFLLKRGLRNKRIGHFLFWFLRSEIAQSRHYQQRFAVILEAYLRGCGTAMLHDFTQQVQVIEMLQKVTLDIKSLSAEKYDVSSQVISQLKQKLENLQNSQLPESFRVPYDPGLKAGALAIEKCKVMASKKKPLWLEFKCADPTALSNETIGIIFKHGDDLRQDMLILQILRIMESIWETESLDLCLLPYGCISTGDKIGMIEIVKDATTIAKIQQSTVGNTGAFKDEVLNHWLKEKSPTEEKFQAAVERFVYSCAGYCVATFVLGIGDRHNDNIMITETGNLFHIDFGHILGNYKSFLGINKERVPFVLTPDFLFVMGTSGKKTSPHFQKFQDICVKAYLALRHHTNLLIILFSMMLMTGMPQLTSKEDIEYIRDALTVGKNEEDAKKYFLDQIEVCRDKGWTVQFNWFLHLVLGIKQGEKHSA
# [7] = Inhibition of mTORC1 (unknown origin) after 40 mins by kinase-Glo reagent based luminescence assay; design: species or system Homo sapiens
# HCT-116 [8] = assay: Induction of autophagy in human HCT116 cells assessed as autophagic vacuole formation at 5 uM after 6 hrs by MDC staining based fluorescence microscopic analysis; format: functional, cell-based
# HCT-116 [9] = assay: Induction of apoptosis in human HCT116 cells assessed as late apoptotic cells at 5 uM after 24 hrs by Annexin V-FITC/PI staining based flow cytometry (reference value: 2.35%); format: functional
# HCT-116 [10] = assay: Induction of autophagy in human HCT116 cells assessed as accumulation of GFP/mRFP-tagged LC3 accumulation in cytoplasm after 12 hrs by laser scanning confocal microscopic analysis; format: functional, cell-based
# HCT-116 [11] = assay: Induction of apoptosis in human HCT116 cells assessed as viable cells at 5 uM after 24 hrs by Annexin V-FITC/PI staining based flow cytometry (reference value: 93%); format: functional; conditions: HCT-116, 24 h, read-out: Activity
# HCT-116 [12] = assay: Induction of apoptosis in human HCT116 cells assessed as early apoptotic cells at 5 uM after 24 hrs by Annexin V-FITC/PI staining based flow cytometry (reference value: 4.07%); format: functional
# HCT-116 [13] = assay: Induction of apoptosis in human HCT116 cells assessed as necrotic cells at 5 uM after 24 hrs by Annexin V-FITC/PI staining based flow cytometry (reference value: 0.39%); format: functional
EC50 [1],IC50 (HCT-116 [2]),IC50 (MCF7),Structure (SMILES),also measured
69.3 µM,> 50 µM,> 50 µM,O=C(Cc1ccc(Cl)cc1)c1ccc(O)c(O)c1O,EC50 [3]: 35.2 µM
196 µM,> 50 µM,> 50 µM,O=C(Cc1ccc(Cl)cc1)c1ccc(O)cc1O,
58.4 µM,> 50 µM,> 50 µM,O=C(Cc1ccc(C(F)(F)F)cc1)c1ccc(O)c(O)c1O,
170 µM,> 50 µM,> 50 µM,O=C(Cc1ccc(F)cc1)c1ccc(O)c(O)c1O,
9.7 µM,47.3 µM,> 50 µM,O=C(Cc1ccc(F)c(Cl)c1)c1ccc(O)c(O)c1O,
98.2 µM,> 50 µM,> 50 µM,O=C(Cc1cccc(Cl)c1)c1ccc(O)c(O)c1O,
> 500 µM,> 50 µM,> 50 µM,O=C(Cc1ccc(Cl)cc1)c1cccc(O)c1O,

# More lines, now with the values behind:
Structure (SMILES),EC50 [1],IC50 (HCT-116 [2]),IC50 (MCF7),also measured
O=C(Cc1ccc(Cl)c(Cl)c1)c1ccc(O)c(O)c1O,8.9 µM,35.5 µM,48.9 µM,
O=C(Cc1ccc(Cl)cc1)c1c(O)cc(O)cc1O,115 µM,> 50 µM,> 50 µM,EC50 [3]: 79.3 µM
Oc1ccc(-c2n[nH]cc2-c2ccc(Cl)c(Cl)c2)c(O)c1O,,,,EC50 [4]: 19.1 µM; EC50 [5]: 5.7 µM; EC50 [6]: 10 µM
Cn1c(=O)n(-c2ccc(C(C)(C)C#N)cc2)c2c3cc(-c4cnc5ccccc5c4)ccc3ncc21 [DACTOLISIB],,,,EC50 [7]: 0.079 µM
FC(F)c1nc2ccccc2n1-c1nc(N2CCOCC2)nc(N2CCOCC2)n1 [ZSTK-474],,1.31 µM,5.27 µM,Activity (HCT-116 [8]): Active; Activity (HCT-116 [9]): 1.29%; Activity (HCT-116 [10]): Dose-dependent effect; viability at 5 µM (HCT-116 [11]): 92%; Activity (HCT-116 [12]): 5.6%; Activity (HCT-116 [13]): 0.2%
O=C(Cc1ccccc1F)c1ccc(O)c(O)c1O,> 500 µM,> 50 µM,> 50 µM,
O=C(Cc1ccccc1Cl)c1ccc(O)c(O)c1O,> 500 µM,> 50 µM,> 50 µM,
COc1ccc(CC(=O)c2ccc(O)c(O)c2O)cc1OC,242 µM,> 50 µM,> 50 µM,
